According to PubChem BioAssay (NCI):
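These data come from cells grown in 96-well plates and exposed to compound for 48 hours at five concentrations. At the GI50, growth is halved. TGI denotes the concentration required for complete inhibition of growth.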

How the values were obtained:
Assay in all cases: NCI anticancer screen, dose series, 48 h
UACC-62 melanoma = system: UACC-62 melanoma
786-0 renal = system: 786-0 renal
COLO 205 colon = system: COLO 205 colon
ACHN renal = system: ACHN renal
HCT-116 colon = system: HCT-116 colon
TK-10 renal = system: TK-10 renal
HOP-92 NSCLC = system: HOP-92 NSCLC
OVCAR-4 ovarian = system: OVCAR-4 ovarian
SF-268 CNS = system: SF-268 CNS
RXF 393 renal = system: RXF 393 renal
HL-60(TB) leukemia = system: HL-60(TB) leukemia
LOX IMVI melanoma = system: LOX IMVI melanoma
CCRF-CEM leukemia = system: CCRF-CEM leukemia
SW-620 colon = system: SW-620 colon
K-562 leukemia = system: K-562 leukemia
SK-MEL-5 melanoma = system: SK-MEL-5 melanoma
UO-31 renal = system: UO-31 renal
HCT-15 colon = system: HCT-15 colon
M14 melanoma = system: M14 melanoma
BT-549 breast = system: BT-549 breast
A549 NSCLC = system: A549 NSCLC
SF-539 CNS = system: SF-539 CNS
A498 renal = system: A498 renal
MALME-3M melanoma = system: MALME-3M melanoma
IGROV1 ovarian = system: IGROV1 ovarian
SR leukemia = system: SR leukemia
SK-MEL-28 melanoma = system: SK-MEL-28 melanoma
SK-OV-3 ovarian = system: SK-OV-3 ovarian
RPMI-8226 leukemia = system: RPMI-8226 leukemia
SN12C renal = system: SN12C renal
OVCAR-3 ovarian = system: OVCAR-3 ovarian
U251 CNS = system: U251 CNS
MCF7 breast = system: MCF7 breast
EKVX NSCLC = system: EKVX NSCLC
NCI-H226 lung = system: NCI-H226 lung
CAKI-1 renal = system: CAKI-1 renal
SNB-75 CNS = system: SNB-75 CNS
HOP-62 NSCLC = system: HOP-62 NSCLC
DU-145 prostate = system: DU-145 prostate
KM12 colon = system: KM12 colon
MDA-MB-435 = system: MDA-MB-435
T-47D breast = system: T-47D breast
OVCAR-5 ovarian = system: OVCAR-5 ovarian
HS 578T breast = system: HS 578T breast
HT29 colon = system: HT29 colon
NCI/ADR-RES ovarian = system: NCI/ADR-RES ovarian
SF-295 CNS = system: SF-295 CNS
NCI-H23 lung = system: NCI-H23 lung
HCC-2998 colon = system: HCC-2998 colon
NCI-H460 lung = system: NCI-H460 lung
SNB-19 CNS = system: SNB-19 CNS
OVCAR-8 ovarian = system: OVCAR-8 ovarian
SK-MEL-2 melanoma = system: SK-MEL-2 melanoma
UACC-257 melanoma = system: UACC-257 melanoma
MOLT-4 leukemia = system: MOLT-4 leukemia
MDA-MB-231 breast = system: MDA-MB-231 breast
NCI-H522 lung = system: NCI-H522 lung
PC-3 prostate = system: PC-3 prostate

COc1ccc2nccc(/C=C/c3ccnc4ccc(OC)cc34)c2c1
GI50 (UACC-62 melanoma): > 77.4 µM | TGI (UACC-62 melanoma): > 100 µM | GI50 (786-0 renal): > 100 µM | TGI (786-0 renal): > 100 µM | GI50 (COLO 205 colon): > 100 µM | TGI (COLO 205 colon): > 100 µM | GI50 (ACHN renal): > 71 µM | TGI (ACHN renal): > 100 µM | GI50 (HCT-116 colon): 38.7 µM | TGI (HCT-116 colon): > 100 µM | GI50 (TK-10 renal): > 45.2 µM | TGI (TK-10 renal): > 63.4 µM | GI50 (HOP-92 NSCLC): 8.11 µM | TGI (HOP-92 NSCLC): > 56.9 µM | GI50 (OVCAR-4 ovarian): 21.7 µM | TGI (OVCAR-4 ovarian): > 52.5 µM | GI50 (SF-268 CNS): > 91.6 µM | TGI (SF-268 CNS): > 100 µM | GI50 (RXF 393 renal): > 73.4 µM | TGI (RXF 393 renal): > 100 µM | GI50 (HL-60(TB) leukemia): > 50.8 µM | TGI (HL-60(TB) leukemia): > 86.5 µM | GI50 (LOX IMVI melanoma): 69.3 µM | TGI (LOX IMVI melanoma): > 100 µM | GI50 (CCRF-CEM leukemia): > 38.9 µM | TGI (CCRF-CEM leukemia): > 53.3 µM | GI50 (SW-620 colon): 39.8 µM | TGI (SW-620 colon): > 100 µM | GI50 (K-562 leukemia): > 43 µM | TGI (K-562 leukemia): > 59.1 µM | GI50 (SK-MEL-5 melanoma): > 71.4 µM | TGI (SK-MEL-5 melanoma): > 100 µM | GI50 (UO-31 renal): > 100 µM | TGI (UO-31 renal): > 100 µM | GI50 (HCT-15 colon): > 62.8 µM | TGI (HCT-15 colon): > 100 µM | GI50 (M14 melanoma): > 42 µM | TGI (M14 melanoma): > 56 µM | GI50 (BT-549 breast): > 63.4 µM | TGI (BT-549 breast): > 100 µM | GI50 (A549 NSCLC): > 100 µM | TGI (A549 NSCLC): > 100 µM | GI50 (SF-539 CNS): > 93.1 µM | TGI (SF-539 CNS): > 100 µM | GI50 (A498 renal): > 36.9 µM | TGI (A498 renal): > 83.9 µM | GI50 (MALME-3M melanoma): 22.1 µM | TGI (MALME-3M melanoma): 48.1 µM | GI50 (IGROV1 ovarian): 28.4 µM | TGI (IGROV1 ovarian): 75.7 µM | GI50 (SR leukemia): 21.8 µM | TGI (SR leukemia): > 53.7 µM | GI50 (SK-MEL-28 melanoma): 24.6 µM | TGI (SK-MEL-28 melanoma): 73.8 µM | GI50 (SK-OV-3 ovarian): > 77 µM | TGI (SK-OV-3 ovarian): > 100 µM | GI50 (RPMI-8226 leukemia): 17.8 µM | TGI (RPMI-8226 leukemia): 39.9 µM | GI50 (SN12C renal): > 100 µM | TGI (SN12C renal): > 100 µM | GI50 (OVCAR-3 ovarian): > 92 µM | TGI (OVCAR-3 ovarian): > 100 µM | GI50 (U251 CNS): > 100 µM | TGI (U251 CNS): > 100 µM | GI50 (MCF7 breast): 2.39 µM | TGI (MCF7 breast): > 38.5 µM | GI50 (EKVX NSCLC): > 61.2 µM | TGI (EKVX NSCLC): > 100 µM | GI50 (NCI-H226 lung): > 100 µM | TGI (NCI-H226 lung): > 100 µM | GI50 (CAKI-1 renal): > 82.4 µM | TGI (CAKI-1 renal): > 100 µM | GI50 (SNB-75 CNS): 27.3 µM | TGI (SNB-75 CNS): > 80.2 µM | GI50 (HOP-62 NSCLC): > 64.3 µM | TGI (HOP-62 NSCLC): > 100 µM | GI50 (DU-145 prostate): > 42.4 µM | TGI (DU-145 prostate): > 63.4 µM | GI50 (KM12 colon): > 73.1 µM | TGI (KM12 colon): > 100 µM | GI50 (MDA-MB-435): > 79.5 µM | TGI (MDA-MB-435): > 100 µM | GI50 (T-47D breast): 43.8 µM | TGI (T-47D breast): > 87.3 µM | GI50 (OVCAR-5 ovarian): > 82.2 µM | TGI (OVCAR-5 ovarian): > 100 µM | GI50 (HS 578T breast): 23.6 µM | TGI (HS 578T breast): 90.1 µM | GI50 (HT29 colon): > 69.9 µM | TGI (HT29 colon): > 100 µM | GI50 (NCI/ADR-RES ovarian): > 100 µM | TGI (NCI/ADR-RES ovarian): > 100 µM | GI50 (SF-295 CNS): > 64.6 µM | TGI (SF-295 CNS): > 100 µM | GI50 (NCI-H23 lung): > 100 µM | TGI (NCI-H23 lung): > 100 µM | GI50 (HCC-2998 colon): > 100 µM | TGI (HCC-2998 colon): > 100 µM | GI50 (NCI-H460 lung): > 100 µM | TGI (NCI-H460 lung): > 100 µM | GI50 (SNB-19 CNS): > 100 µM | TGI (SNB-19 CNS): > 100 µM | GI50 (OVCAR-8 ovarian): > 100 µM | TGI (OVCAR-8 ovarian): > 100 µM | GI50 (SK-MEL-2 melanoma): > 53.6 µM | TGI (SK-MEL-2 melanoma): > 78.4 µM | GI50 (UACC-257 melanoma): > 100 µM | TGI (UACC-257 melanoma): > 100 µM | GI50 (MOLT-4 leukemia): > 55.1 µM | TGI (MOLT-4 leukemia): > 100 µM | GI50 (MDA-MB-231 breast): > 41.5 µM | TGI (MDA-MB-231 breast): > 61.6 µM | GI50 (NCI-H522 lung): 26.9 µM | TGI (NCI-H522 lung): 89.2 µM | GI50 (PC-3 prostate): > 47.5 µM | TGI (PC-3 prostate): > 79.9 µM
